The numbers were not newly measured in patent US20050042178A1, “Microparticles containing the CGRP-antagonist 1-[N2-[3,5-dibrom-N-[[4-(3,4-dihydro-2(1H)-oxoquinazoline-3-yl)-1-piperidinyl]carbonyl]-D-tyrosyl]-L-lysyl]-4-(4-pyridinyl)-piperazine, process for preparing and the use thereof as inhalation powder” (Boehringer Ingelheim International GmbH, priority 2003, published 2005), which cites them from elsewhere.

The conditions of this series: conventional formulations.

For `NCCCC[C@H](NC(=O)[C@@H](Cc1cc(Br)c(O)c(Br)c1)NC(=O)N1CCC(N2Cc3ccccc3NC2=O)CC1)C(=O)N1CCN(c2ccncc2)CC1` [A, 1-[N^2-[3,5-dibromo-N-[[4-(3,4-dihydro-2(1H)-oxoquinazolin-3-yl)-1-piperidinyl]carbonyl]-D-tyrosyl]-L-lysyl]-4-(4-pyridinyl)-piperazine], the oral bioavailability entry is listed as “very limited”.
